Experimental data published in ChEMBL document CHEMBL1148904, “Iridoid glycosides from Eremostachys glabra” (J Nat Prod, 2004).

Tested on: Radical scavenging activity
Test: Antioxidant activity assessed as DPPH radical scavenging activity after 30 mins
Type: functional

| Compound | RC50 |
| --- | --- |
| COC(=O)C1=CO[C@@H](O[C@@H]2O[C@H](CO)[C@@H](O)[C@H](O)[C@H]2O)[C@@H]2[C@@H]1[C@@H](O)C[C@]2(C)OC(C)=O | 1.1 ×10⁻¹ mg/ml |
| COC(=O)C1=CO[C@@H](O[C@@H]2O[C@H](CO)[C@@H](O)[C@H](O)[C@H]2O)[C@H]2[C@H](C)C[C@@H](O)[C@@]12O | 4.9 ×10⁻¹ mg/ml |
| COC(=O)C1=CO[C@@H](O[C@@H]2O[C@H](CO)[C@@H](O)[C@H](O)[C@H]2O)[C@H]2C(C)=C[C@@H](O)[C@@]12O | 4.1 ×10⁻¹ mg/ml |
| O=c1c(O)c(-c2ccc(O)c(O)c2)oc2cc(O)cc(O)c12 | 2.88 ×10⁻⁵ mg/ml |
